From patent publication US11285156B2, “Substituted piperazines as KRAS G12C inhibitors” (Amgen Inc., priority 2018, dated 2022) come the findings set out here.

Read-outs that look alike come from different tables or passages of the source. Where only a bound is given, the exact number is not on record here.

The target of assay [1] is GDP-bound KRAS protein (aa 1-169), containing both G12C and C118A amino acid substitutions (Homo sapiens (Human), UniProt P01116, C118A/G12C). Briefly: Coupled nucleotide exchange assay (SOS-mediated nucleotide exchange, AlphaScreen). Format: biochemical. Conditions: 5 min compound pre-incubation; for IC50: read-out: Coupled exchange IC50 (5 min; μM).
In assay [2] the test system is Phosphorylation of ERK1/2 in MIA PaCa-2 cells. Briefly: Phospho-ERK1/2 MSD assay in MIA PaCa-2 cells. The class given is cell-based. Conditions: read-out: p-ERK IC50 (2 h, MiaPaCa-2; μM), 2 h compound treatment, MIA PaCa-2 cells, EGF stimulated. A digest of the protocol: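 Phospho-ERK1/2 measured by MSD electrochemiluminescence kit in RIPA lysates of MIA PaCa-2 cells. Cells were treated with compound titrations for 2 or 4 h at 37 °C, 5% CO2, followed by a 10 min pulse of 10 ng/mL EGF.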

In assay [3] the test system is Phosphorylation of ERK1/2 in A549 cells. In words: Phospho-ERK1/2 MSD assay in A549 cells. Conditions: read-out: p-ERK IC50 (2 h, A549; μM), 2 h compound treatment, A549 cells, EGF stimulated. Format: cell-based. A digest of the protocol: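 Phospho-ERK1/2 was quantified by MSD immunoassay in RIPA lysates of MIA PaCa-2 or A549 cells. Before lysis, cells received 10 ng/mL EGF for 10 min after 2 or 4 h exposure at 37° C. to a compound concentration series.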

Sequence of GDP-bound KRAS protein (aa 1-169), containing both G12C and C118A amino acid substitutions (P01116 other isoform, or with tags, fused parts or gaps G12C/C118A): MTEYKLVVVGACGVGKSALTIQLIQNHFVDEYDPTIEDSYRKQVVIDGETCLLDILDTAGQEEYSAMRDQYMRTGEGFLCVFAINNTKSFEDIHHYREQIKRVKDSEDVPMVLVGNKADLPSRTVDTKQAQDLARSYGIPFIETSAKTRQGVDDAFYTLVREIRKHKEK

With `C=CC(=O)N1C[C@H](C)N(c2nc(=O)n(-c3c(C4CC4)ccnc3C(C)C)c3nc(-c4ccccc4C)c(Cl)cc23)C[C@H]1C` (single isomer, unassigned) [Example 125-9], the “Coupled exchange IC50 (5 min; μM)” value in assay [1] is 0.035 µM. The IC50 was 0.048 µM in assay [2] and over 7.5 µM in assay [3].
On to `C=CC(=O)N1CCN(c2nc(=O)n(-c3c(C(C)C)ccnc3C(C)C)c3nc(-c4ccccc4C)c(Cl)cc23)[C@@H](C)C1` (single isomer, unassigned) [Example 125-10], for which the IC50 in assay [1] is 0.032 µM; in assay [2], 0.068 µM; in assay [3] it was over 7.5 µM.
On the same counts, the results for `C=CC(=O)N1CCN(c2nc(=O)n(CC(C)(C)C)c3nc(-c4ccccc4F)c(Cl)cc23)CC1CC#N` (single isomer, unassigned) [Example 145-1-1, 2-[4-[6-Chloro-1-(2,2-dimethylpropyl)-7-(2-fluorophenyl)-2-oxo-pyrido[2,3-d]pyrimidin-4-yl]-1-prop-2-enoyl-piperazin-2-yl]acetonitrile] are 1.71 µM, 1.3 µM and 5.53 µM.
Take `C=CC(=O)N1CCN(c2nc(=O)n(CC(C)(C)C)c3nc(-c4ccccc4F)c(Cl)cc23)CC1CC#N` (single isomer, unassigned) [Example 145-1-2, 2-[4-[6-Chloro-1-(2,2-dimethylpropyl)-7-(2-fluorophenyl)-2-oxo-pyrido[2,3-d]pyrimidin-4-yl]-1-prop-2-enoyl-piperazin-2-yl]acetonitrile]: the IC50 worked out at 1.15 µM in assay [1], 1.05 µM in assay [2] and 3.94 µM in assay [3].
`C=CC(=O)N1C[C@H](C)N(c2nc(=O)n3c4nc(c(Cl)cc24)-c2ccccc2C/C=C\Cc2cccc(C(C)C)c2-3)C[C@H]1C` (single isomer, unassigned) [Example 146-2-2]: the half-maximal inhibitory concentration (IC50) in assay [1] was 0.061 µM; in assay [2] (Homo sapiens, MIA PaCa-2, 2 h), 0.096 µM; in assay [3] (Homo sapiens, A549, 2 h), 5.48 µM.
For the compound `C=CC(=O)N1C[C@H](C)N(c2nc(=O)n3c4nc(c(Cl)cc24)-c2ccccc2C/C=C/Cc2ccccc2-3)C[C@H]1C` (single isomer, unassigned) [Example 146-3-2], the 50% inhibitory concentration (IC50) in assay [1] is 4.4 µM; in assay [2] (Homo sapiens, MIA PaCa-2, 2 h) it was 1.05 µM; in assay [3] (Homo sapiens, A549, 2 h), over 7.5 µM.
Consider `C=CC(=O)N1C[C@H](C)N(c2nc(=O)n3c4nc(c(Cl)cc24)-c2ccccc2C/C=C\Cc2ccccc2-3)C[C@H]1C` (single isomer, unassigned) [Example 146-3-4], for which the values for the concentration for half-maximal inhibition (IC50) in assay [1], in assay [2] and in assay [3] were 7.96 µM, 1.26 µM and over 7.5 µM, respectively.
In the case of `C=CC(=O)N1C[C@H](C)N(c2nc(=O)n(-c3c(C)cc(CC)nc3C(C)C)c3nc(-c4ccccc4F)c(Cl)cc23)C[C@H]1C` (single isomer, unassigned) [Example 166-1], in assay [1], the “Coupled exchange IC50 (5 min; μM)” value is 0.049 µM. Further, the half-maximal inhibitory concentration (IC50) in assay [2] (Homo sapiens, MIA PaCa-2, 2 h) is 0.118 µM; in assay [3] (Homo sapiens, A549, 2 h) it was over 7.5 µM.
As for `C=CC(=O)N1CCN(c2nc(=O)n(-c3c(C)cc(N)nc3C(C)C)c3nc(-c4ccccc4F)c(Cl)cc23)[C@@H](C)C1` (single isomer, unassigned) [Example 183-2], the 50% inhibitory concentration (IC50) is 0.058 µM in assay [1]; 0.043 µM in assay [2] (Homo sapiens, MIA PaCa-2, 2 h); over 7.5 µM in assay [3] (Homo sapiens, A549, 2 h).
Consider `C=CC(=O)N1C[C@H](C)N(c2nc(=O)n(-c3c(N)ncnc3C(C)C)c3nc(-c4ccccc4F)c(Cl)cc23)C[C@H]1C` (single isomer, unassigned) [Example 189-1], for which the “Coupled exchange IC50 (5 min; μM)” value in assay [1] was found to be 0.036 µM. The IC50 in assay [2] (Homo sapiens, MIA PaCa-2, 2 h) is 0.072 µM; in assay [3] (Homo sapiens, A549, 2 h) it was over 7.5 µM.
For `C=CC(=O)N1C[C@H](C)N(c2nc(=O)n(-c3c(C)nc(Cl)nc3C(C)C)c3nc(-c4ccccc4F)c(Cl)cc23)C[C@H]1C` (single isomer, unassigned) [Example 191-2], in assay [1], the “Coupled exchange IC50 (5 min; μM)” value came to 0.079 µM. Further, the IC50 in assay [2] (Homo sapiens, MIA PaCa-2, 2 h) is 0.079 µM; in assay [3] (Homo sapiens, A549, 2 h), over 7.5 µM.
For the compound `C=CC(=O)N1C[C@H](C)N(c2nc(=O)n(-c3c(C)ncnc3C(C)C)c3nc(-c4ccccc4F)c(Cl)cc23)C[C@H]1C` (single isomer, unassigned) [Example 194-1], the “Coupled exchange IC50 (5 min; μM)” value in assay [1] was found to be 0.067 µM. Moreover, the half-inhibitory concentration (IC50) in assay [2] (Homo sapiens, MIA PaCa-2, 2 h) is 0.033 µM; in assay [3] (Homo sapiens, A549, 2 h), over 7.5 µM.
On the same counts, the results for `C=CC(=O)N1C[C@H](C)N(c2nc(=O)n(-c3c(C)nc(N(C)C)nc3C(C)C)c3nc(-c4ccccc4F)c(Cl)cc23)C[C@H]1C` (single isomer, unassigned) [Example 196] are 0.048 µM, 0.097 µM and over 7.5 µM.
`C=CC(=O)N1C[C@H](C)N(c2nc(=O)n(-c3c(C)nc(Br)nc3C(C)C)c3nc(-c4ccccc4F)c(Cl)cc23)C[C@H]1C` (single isomer, unassigned) [Example 197-2]: the “Coupled exchange IC50 (5 min; μM)” value in assay [1] was found to be 0.01 µM. Besides, the IC50 in assay [2] (Homo sapiens, MIA PaCa-2, 2 h) was 0.091 µM; in assay [3] (Homo sapiens, A549, 2 h) it was over 7.5 µM.
On the same counts, the results for `C=CC(=O)N1C[C@H](C)N(c2nc(=O)n(-c3c(C)nc(C4CC4)nc3C(C)C)c3nc(-c4ccccc4F)c(Cl)cc23)C[C@H]1C` (single isomer, unassigned) [Example 198] are 0.075 µM, 0.136 µM and 5.96 µM.
For the compound `C=CC(=O)N1C[C@H](C)N(c2nc(=O)n(-c3c(C)nc(CC)nc3C(C)C)c3nc(-c4ccccc4F)c(Cl)cc23)C[C@H]1C` (single isomer, unassigned) [Example 199], in assay [1], the “Coupled exchange IC50 (5 min; μM)” value came out at 0.132 µM. The IC50 in assay [2] (Homo sapiens, MIA PaCa-2, 2 h) is 0.087 µM; in assay [3] (Homo sapiens, A549, 2 h), over 7.5 µM.
On to `C=CC(=O)N1C[C@H](C)N(c2nc(=O)n(-c3c(C)nc(F)nc3C(C)C)c3nc(-c4ccccc4F)c(Cl)cc23)C[C@H]1C` (single isomer, unassigned) [Example 200], for which, in assay [1], the “Coupled exchange IC50 (5 min; μM)” value worked out at 0.03 µM. The half-inhibitory concentration (IC50) was 0.094 µM in assay [2] (Homo sapiens, MIA PaCa-2, 2 h) and over 7.5 µM in assay [3] (Homo sapiens, A549, 2 h).
In the case of `C=CC(=O)N1C[C@H](C)N(c2nc(=O)n(-c3c(C)nc(C(=C)C)nc3C(C)C)c3nc(-c4ccccc4F)c(Cl)cc23)C[C@H]1C` (single isomer, unassigned) [Example 201], the “Coupled exchange IC50 (5 min; μM)” value in assay [1] amounted to 0.075 µM. Besides, the concentration for half-maximal inhibition (IC50) in assay [2] (Homo sapiens, MIA PaCa-2, 2 h) came to 0.205 µM; in assay [3] (Homo sapiens, A549, 2 h), 5.05 µM.
For the compound `C=CC(=O)N1C[C@H](C)N(c2nc(=O)n(-c3c(C)nc(C=C)nc3C(C)C)c3nc(-c4ccccc4F)c(Cl)cc23)C[C@H]1C` (single isomer, unassigned) [Example 202], the “Coupled exchange IC50 (5 min; μM)” value in assay [1] stood at 0.071 µM. In addition, the concentration for half-maximal inhibition (IC50) was 0.075 µM in assay [2] (Homo sapiens, MIA PaCa-2, 2 h) and over 7.5 µM in assay [3] (Homo sapiens, A549, 2 h).
For the compound `C=CC(=O)N1C[C@H](C)N(c2nc(=O)n(-c3c(C)nc(C(C)C)nc3C(C)C)c3nc(-c4ccccc4F)c(Cl)cc23)C[C@H]1C` (single isomer, unassigned) [Example 203], in assay [1], the “Coupled exchange IC50 (5 min; μM)” value worked out at 0.223 µM. The concentration for half-maximal inhibition (IC50) is 0.243 µM in assay [2] (Homo sapiens, MIA PaCa-2, 2 h) and over 7.5 µM in assay [3] (Homo sapiens, A549, 2 h).
Regarding `C#Cc1nc(C)c(-n2c(=O)nc(N3C[C@@H](C)N(C(=O)C=C)C[C@@H]3C)c3cc(Cl)c(-c4ccccc4F)nc32)c(C(C)C)n1` (single isomer, unassigned) [Example 204], the “Coupled exchange IC50 (5 min; μM)” value in assay [1] came to 0.066 µM. Also, the IC50 was 0.091 µM in assay [2] (Homo sapiens, MIA PaCa-2, 2 h) and 3.01 µM in assay [3] (Homo sapiens, A549, 2 h).

As usually defined, the IC50 is the concentration at which inhibition is half-maximal.
